From patent US7847152B2, “Use of tryptophan indole and anthranilate analogs as plant transformation selection agents” (The Board of Trustees of the University of Illinois, priority 2006, dated 2010)

Legend:
Type in all cases: biochemical, Nicotiana tabacum
[1] = system: anthranilate synthase (AS) holoenzyme of WT tobacco; assay: AS holoenzyme activity, inhibition by Trp, wild type (10 mM Gln as amino donor)
Procedure: (§1) Approximately 2 g of leaves was homogenized with 1.5 volume of ice-cold extraction buffer as described in Bernasconi et al., (1994). The homogenate was centrifuged at 30,000 g at 4° C. for 10 min. The supernatant was desalted using a Econo-Pac 10 DG column (Bio-Rad, Hercules, Calif.). Protein concentration was determined using a protein dye-binding assay kit (Bio-Rad, Hercules, Calif.). The supernatant was combined with two volumes of assay buffer as described previously (Bernasconi et al., 1994) but without NH4Cl. AS enzyme activity was measured as the conversion rate of chorismate to anthranilate as described previously (Song et al., 1998). Either 100 mM NH4Cl or 10 mM glutamine was added to the assay mixture to determine α-subunit activity or AS holoenzyme activity respectively and Trp at different concentrations. Duplicate extracts of each line were analyzed.

[2] = system: AS α subunit of WT tobacco; assay: AS α subunit activity, inhibition by Trp, wild type (100 mM NH4Cl as amino donor); conditions: 10 μm Trp, Example 6
Procedure: as §1

[3] = system: AS α subunit (feedback insensitive ASA2) of transgenic tobacco lines; assay: AS α subunit activity, inhibition by Trp, ASA2 transgenic lines (100 mM NH4Cl); conditions: 300 μM Trp, pC2ASA2 lines
Procedure: as §1

[4] = system: AS holoenzyme of ASA2 transgenic tobacco lines; assay: AS holoenzyme activity, inhibition by Trp, ASA2 transgenic lines (10 mM Gln); conditions: 300 μM Trp, pC2ASA2 lines
Procedure: as §1

With N[C@@H](Cc1c[nH]c2ccccc12)C(=O)O [Trp, tryptophan] the “WT relative holoenzyme activity” value ([1]; 300 μM Trp, Example 9) was “almost completely inhibited”, the “WT AS holoenzyme activity” value ([1]; 10 μm Trp, Example 6) was “almost completely inhibited” and the “WT AS α subunit activity” value [2] was “almost completely inhibited”. For the same compound, the “α-subunit activity retained by line #6 and line #7” value [3] was “about 40%” and the “holoenzyme activity retained by line #6 and line #7” value [4] was “about 40%”.
